US20250170267A1, “ANTIBODY-DRUG CONJUGATE PRECURSOR AND INTERMEDIATE FOR SYNTHESIS THEREOF” (UBE Corporation, priority 2022, published 2025)
Like-named read-outs stand apart in the source and are kept apart here. Numbered stars: 1 amine (or outer) side, 2 acyl side, 3 side chain; on linkers, the order of the positions; unused ones are H or OH. Square brackets hold non-standard residues; d marks the D form. Peptide text beside a SMILES is read from it. * marks the point of attachment. Exatecan = CC[C@@]1(O)C(=O)OCc2c1cc1n(c2=O)Cc2c-1nc1cc(F)c(C)c3c1c2[C@@H](N*)CC3; X7 = C[C@@H](N*)[C@@H](OC(=O)OCc1cn(C2OC(C(=O)O)C(O)C(O)C2O)nn1)c1ccccc1; Dolaproine = CO[C@@H]([C@@H]1CCCN1)[C@@H](C)C(=O)O; Propanoyl(3-maleimido) = O=C1C=CC(=O)N1CCC(=O)*; X5 = C[C@@H](N[*:1])[C@@H](OC(=O)[*:2])c1ccccc1; NH(CH2CH2O)8Me = COCCOCCOCCOCCOCCOCCOCCOCCN*; X10 = COCCOC(=O)O[C@@H](c1ccccc1)[C@@H](C)N*; Dil = CC[C@H](C)[C@H](NC)[C@@H](CC(=O)O)OC; X3 = C[C@@H](N*)[C@@H](OP(=O)(O)O)c1ccccc1; PABC = O=C(OCc1ccc(N[*:1])cc1)[*:2]; hSer(lactone) = O=C1OCC[C@@H]1N*; Cit = NC(=O)NCCC[C@H](N)C(=O)O; PEG4 = NCCOCCOCCOCCOCCC(=O)O; NMeV = CN[C@H](C(=O)O)C(C)C; X8 = c1[nH]nnc1CN*; Sar = CNCC(=O)O

How the values were obtained:
porcine tubulin = target: T1, porcine tubulin (Sus scrofa, UniProt P02550+P02554); test: Tubulin polymerization inhibition test; type: biochemical
T1 construct: purchased Cytoskeleton, Inc. BK011P
T1 sequence (P02550 whole entry): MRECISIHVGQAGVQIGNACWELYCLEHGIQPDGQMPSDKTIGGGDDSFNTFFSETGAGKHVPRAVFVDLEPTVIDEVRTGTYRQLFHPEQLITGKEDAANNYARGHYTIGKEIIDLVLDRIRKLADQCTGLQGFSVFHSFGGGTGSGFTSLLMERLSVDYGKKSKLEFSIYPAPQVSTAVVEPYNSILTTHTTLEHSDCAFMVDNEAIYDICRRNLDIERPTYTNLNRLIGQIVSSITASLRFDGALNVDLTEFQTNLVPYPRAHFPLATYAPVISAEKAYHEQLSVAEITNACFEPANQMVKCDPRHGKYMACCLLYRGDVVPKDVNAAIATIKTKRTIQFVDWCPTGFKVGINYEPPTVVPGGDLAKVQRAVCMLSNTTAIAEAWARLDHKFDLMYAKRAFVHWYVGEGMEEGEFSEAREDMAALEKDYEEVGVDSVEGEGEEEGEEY
T1 sequence (P02554 whole entry): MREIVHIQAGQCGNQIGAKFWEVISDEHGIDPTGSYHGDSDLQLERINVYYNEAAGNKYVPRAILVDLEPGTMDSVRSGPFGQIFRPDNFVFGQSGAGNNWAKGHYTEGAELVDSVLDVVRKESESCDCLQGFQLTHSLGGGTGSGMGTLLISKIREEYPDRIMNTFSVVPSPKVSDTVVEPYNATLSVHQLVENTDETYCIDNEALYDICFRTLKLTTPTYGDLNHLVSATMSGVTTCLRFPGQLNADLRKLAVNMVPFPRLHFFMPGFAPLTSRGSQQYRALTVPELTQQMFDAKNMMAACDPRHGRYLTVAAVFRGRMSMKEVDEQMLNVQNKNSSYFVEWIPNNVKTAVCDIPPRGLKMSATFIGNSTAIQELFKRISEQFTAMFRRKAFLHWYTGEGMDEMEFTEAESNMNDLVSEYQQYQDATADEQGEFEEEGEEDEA
Description: For measuring the tubulin polymerization inhibitory action, Tubulin Polymerization Assay Kit (manufactured by Cytoskeleton, Inc., BK011P) was used. A PIPES buffer containing porcine tubulin, GTP, MgCl2, EGTA, Glycerol, and a fluorescent reporter was prepared under ice-cooling as a reaction solution. The reaction solution was ice-cooled until it was used. A test compound solution was prepared by an aqueous solution containing 1.5% DMSO, and added to a 96 well plate (manufactured by Corning Inc., 3686) at 5 μL/well. The reaction solution was added thereto at 50 μL/well, the plate was placed in a microplate reader (FlexStation 3, manufactured by Molecular Device, LLC) in which the internal temperature was set to 37° C. in advance, and the fluorescence intensity measurement (excitation wavelength: 360 nm, detection wavelength: 420 nm) of each well was started. The fluorescence intensity was measured once every minute, and the measurement was continued for 60 minutes.
The tubulin polymerization inhibition rate (%) was calculated by the following equation.
[formula] • a: average amount of fluorescence intensity increase in vehicle-treated well (n=2) • b: average amount of fluorescence intensity increase in test compound-treated well (n=2)
Amount of fluorescence intensity increase: (average fluorescence intensity after 51 to 60 minutes from measurement start)−(average fluorescence intensity after 1 to 6 minutes from measurement start)

human liver lysosome = test: Metabolism test using human liver lysosomal fraction; type: in vitro ADME; details: 37° C., 24 hours, released drug, LC-MS/MS
Description: To a reaction composition solution (X10 Catabolic Buffer (manufactured by SEKISUI-Xenotech, LLC., K5200))(60 μL) in which human liver lysosome (manufactured by SEKISUI-Xenotech, LLC., Cat No. H610.L 2.5 mg/mL)(corresponding to 0.125 mg of protein) was suspended and distilled water (manufactured by FUJIFILM Wako Pure Chemical Corporation, for HPLC)(10 μL) was added 1.2 μM test compound (antibody-drug conjugate produced in ADC Production examples)(25 μL) dissolved in PBS to prepare a reaction solution. After the reaction solution was incubated at 37° C. for 24 hours, “an antitumor drug molecule or an analog thereof, or a derivative thereof” released from the antibody-drug conjugate into the reaction solution was quantified by LC-MS/MS (high performance liquid chromatography/mass spectrometer system) under the following conditions. LC-MS/MS analysis conditions
(§1) LC: LC20 or LC30 HPLC system manufactured by Shimadzu Corporation
(§2) Column: Phenomenex Kinetex C18 (50×2.1 mm, 2.6 μm)
(§3) Column temperature: 40° C.
(§4) Mobile phase A: 0.1% aqueous solution of formic acid, Mobile phase B: 0.1% solution of formic acid in a mixture of 50% acetonitrile/methanol
(§5) Mode: Positive or Negative
(§6) The release rate (%) of drug was calculated by the following equation.

human liver Cathepsin B = target: T2, human liver Cathepsin B (Homo sapiens, UniProt P07858); test: Metabolism test using human liver Cathepsin B; type: in vitro ADME; details: 37° C., 24 hours, released drug, LC-MS/MS
T2 construct: human liver Cathepsin B (manufactured by Sigma-Aldrich Co. LLC, Cat No. C8571 25 μg/vial); purchased Sigma-Aldrich Co. LLC C8571; host or cells: human liver
Description: To human liver Cathepsin B (manufactured by Sigma-Aldrich Co. LLC, Cat No. C8571 25 μg/vial)(corresponding to 400 Unit/mL)(5 μL), X10 Catabolic Buffer (manufactured by SEKISUI-Xenotech, LLC., K5200)(10 μL), 2.5 mM Bovine Serum Albumin (manufactured by FUJIFILM Wako Pure Chemical Corporation, Cat No. 012-15093)(5 μL), and distilled water (manufactured by FUJIFILM Wako Pure Chemical Corporation, for HPLC)(55 μL) was added 1.2 μM test compound (antibody-drug conjugate prepared in ADC Production examples)(25 μL) dissolved in PBS to prepare a reaction solution. After the reaction solution was incubated at 37° C. for 24 hours, “an antitumor drug molecule or an analog thereof, or a derivative thereof” released from the antibody-drug conjugate into the reaction solution was quantified by LC-MS/MS (high performance liquid chromatography/mass spectrometer system) under the following conditions. LC-MS/MS analysis conditions
as §1, §2, §3, §4, §5, §6

[1] = porcine tubulin, 37° C., fluorescence over 60 minutes, read-out: IC50 value (tubulin polymerization inhibition)

SMILES | IC50 (porcine tubulin; [1]) | other results
CC[C@H](C)[C@@H]([C@@H](CC(=O)N1CCC[C@H]1[C@H](OC)[C@@H](C)C(=O)N[C@H](C)[C@@H](O)c1ccccc1)OC)N(C)C(=O)[C@@H](NC(=O)[C@H](C(C)C)N(C)Cc1cc(N)ccc1F)C(C)C [Example U-008] | ≤ 3 µM | 
CC[C@@]1(OC(=O)OCc2ccc(NC(=O)[C@H](CCCNC(N)=O)NC(=O)[C@@H](NC(=O)[C@H](CC(=O)N[C@H]3CCOC3=O)NC(=O)CCOCCOCCOCCOCCNC(=O)[C@H](CNC(=O)CCP(=O)(O)O)N3C(=O)C=CC3=O)C(C)C)cc2)C(=O)OCc2c1cc1n(c2=O)Cc2c-1nc1cc(F)c(C)c3c1c2[C@@H](NC(=O)CO)CC3 [Example 11] |  | Release rate (%) of drug from ADC (human liver lysosome): 64%; Release rate (%) of drug from ADC (human liver Cathepsin B): 30%
CC[C@H](C)[C@@H]([C@@H](CC(=O)N1CCC[C@H]1[C@H](OC)[C@@H](C)C(=O)N[C@H](C)[C@@H](OC(=O)OCc1cn(C2OC(C(=O)O)C(O)C(O)C2O)nn1)c1ccccc1)OC)N(C)C(=O)[C@@H](NC(=O)[C@@H](NC)C(C)C)C(C)C (stereo partly drawn) [Example U-020] (H-[NMeV]V[Dil][Dolaproine]-X7) | ≤ 3 µM | 
CC[C@H](C)[C@@H]([C@@H](CC(=O)N1CCC[C@H]1[C@H](OC)[C@@H](C)C(=O)N[C@H](C)[C@@H](OC(=O)NCCOCCOCCOCCOCCOCCOCCOCCOC)c1ccccc1)OC)N(C)C(=O)[C@@H](NC(=O)[C@@H](NC)C(C)C)C(C)C [Example U-011] (H-[NMeV]V[Dil][Dolaproine][X5]-{NH(CH2CH2O)8Me}) | ≤ 3 µM | 
CC[C@H](C)[C@@H]([C@@H](CC(=O)N1CCC[C@H]1[C@H](OC)[C@@H](C)C(=O)N[C@H](C)[C@@H](OC(=O)OCCOC)c1ccccc1)OC)N(C)C(=O)[C@@H](NC(=O)[C@@H](NC)C(C)C)C(C)C [Example U-012] (H-[NMeV]V[Dil][Dolaproine]-X10) | ≤ 3 µM | 
CC[C@H](C)[C@@H]([C@@H](CC(=O)N1CCC[C@H]1[C@H](OC)[C@@H](C)C(=O)N[C@H](C)[C@@H](OC(=O)NCc1c[nH]nn1)c1ccccc1)OC)N(C)C(=O)[C@@H](NC(=O)[C@@H](NC)C(C)C)C(C)C [Example U-021] (H-[NMeV]V[Dil][Dolaproine][X5]-X8) | ≤ 3 µM | 
CC[C@H](C)[C@@H]([C@@H](CC(=O)N1CCC[C@H]1[C@H](OC)[C@@H](C)C(=O)N[C@H](C)[C@@H](O)c1ccccc1)OC)N(C)C(=O)[C@@H](NC(=O)[C@H](C(C)C)N(C)C)C(C)C [Example U-010] |  | IC50 (porcine tubulin): ≤ 3 µM
CC[C@H](C)[C@@H]([C@@H](CC(=O)N1CCC[C@H]1[C@H](OC)[C@@H](C)C(=O)N[C@H](C)[C@@H](OP(=O)(O)O)c1ccccc1)OC)N(C)C(=O)[C@@H](NC(=O)[C@@H](NC)C(C)C)C(C)C [Example U-030] (H-[NMeV]V[Dil][Dolaproine]-X3) | ≤ 3 µM | 
CC[C@@]1(O)C(=O)OCc2c1cc1n(c2=O)Cc2c-1nc1cc(F)c(C)c3c1c2[C@@H](NC(=O)CN(C)C(=O)OCc1ccc(NC(=O)[C@H](CCCNC(N)=O)NC(=O)[C@@H](NC(=O)[C@H](CC(=O)N[C@H]2CCOC2=O)NC(=O)CCOCCOCCOCCOCCNC(=O)CCN2C(=O)C=CC2=O)C(C)C)cc1)CC3 [Example 4] ({Propanoyl(3-maleimido)-PEG4}-D(hSer(lactone))V[Cit][PABC][Sar]-Exatecan) |  | Release rate (%) of drug from ADC (human liver lysosome): 76%; Release rate (%) of drug from ADC (human liver Cathepsin B): 97%
CC[C@H](C)[C@@H]([C@@H](CC(=O)N1CCC[C@H]1[C@H](OC)[C@@H](C)C(=O)N[C@H](C)[C@@H](O)c1ccccc1)OC)N(C)C(=O)[C@@H](NC(=O)[C@H](C(C)C)N(C)CCCC(=O)N[C@H]1CCc2c(C)c(F)cc3nc4c(c1c23)Cn1c-4cc2c(c1=O)COC(=O)[C@]2(O)CC)C(C)C [Example U-017] |  | IC50 (porcine tubulin): ≤ 3 µM
